# Laboratory results from ChEMBL document CHEMBL3352309, “Three types of cytotoxic natural caged-scaffolds: pure enantiomers or partial racemates” (J Nat Prod, 2014).
# System: MCF7
# Assay: Cytotoxicity against human MCF7 cells after 72 hrs by sulforhodamine B assay
# Type: functional, cell-based
# Details: MCF7, 72 h
row,SMILES,IC50
1,CO[C@]12C=C3C(=O)c4c(O)cccc4O[C@@]34C[C@@H]1C(C)(C)O[C@]2(CC=C(C)C)C4=O (racemic),> 5 µg/mL
2,CO[C@]12C=C3C(=O)c4c(O)cccc4O[C@@]34[C@@H](C1)C(C)(C)O[C@]4(CC=C(C)C)C2=O (racemic),0.36 µg/mL
3,COC(=O)[C@@]1(CC=C(C)C)OC(C)(C)[C@@H]2CC(=O)C=C3C(=O)c4c(O)cccc4O[C@]321 (racemic),> 5 µg/mL
4,CC[C@@]1(O)C(=O)OCc2c1cc1n(c2=O)Cc2cc3ccccc3nc2-1 [CAMPTOTHECIN],< 0.024 µg/mL
